Literature values as cited in patent US20120122825A1, “USE OF PICOPLATIN TO TREAT PROSTATE CANCER” (Poniard Pharmaceuticals, Inc., priority 2009, published 2012).

Legend:
[1] = test system: patients with solid tumors; settings: picoplatin and docetaxel combination, 33 patients with solid tumors
[2] = test system: men with HRPC
[3] = 30 mg/m^2 docetaxel weekly for 5 of 6 weeks plus 5 mg prednisone twice daily

- recommended Phase II dose (PTD) [1]: 75 mg/m^2
SMILES: CC(=O)O[C@@]12CO[C@@H]1C[C@H](O)[C@@]1(C)C(=O)[C@H](O)C3=C(C)[C@@H](OC(=O)[C@H](O)[C@@H](NC(=O)OC(C)(C)C)c4ccccc4)C[C@@](O)([C@@H](OC(=O)c4ccccc4)[C@H]21)C3(C)C [docetaxel]
- dose limiting toxicity (DLT) dose [1]: 75 mg/m^2
- >50% reductions in PSA, share of men [2, 3]: 48%
- Overall survival [2, 3]: 17.4 months
- PSA response expected ([2]; docetaxel alone, comparison value): 45%
